# PMC10376059, “New NADPH Oxidase 2 Inhibitors Display Potent Activity against Oxidative Stress by Targeting p22^phox-p47^phox Interactions” (Antioxidants, 2023)
# Legend:
# MTT cytotoxicity assay = assay type: cell-based, human; conditions: human; neutrophil-differentiated HL-60 cells, 72 h, 100 µM
# Experimental: To verify the cytotoxicity of the acrylonitrile derivatives, the MTT reduction method was performed. Briefly, HL-60 cells were seeded in a flat-bottomed 96-well plate at a density of 10,000 cells per well. […] In a second series of experiments, cells were incubated under the same conditions but for 72 h. Etoposide was used as a positive control. Ten μL of MTT was added at a final concentration of 0.5 mg/mL, incubated at 37 °C for 4 h, and then solubilized with 10% SDS in 0.1 mM HCl and incubated overnight at 37 °C. Finally, a blue-colored compound (formazan) formation was measured at 570 nm in a multiplate reader (StatFax 4200, Awareness Technology, Inc., Palm City, FL, USA). The viability percentage was obtained as follows: Viability % = [treated cells DO × 100]/[DO cells control].
# p47^phox = target: T1, p47^phox (Homo sapiens, UniProt P14598); assay: p47phox translocation from cytosol to membrane (Western blot) in PMA-stimulated HL-60 differentiated cells; assay type: cell-based; conditions: PMA 0.8 µM, 50 μM
# T1 construct: we evaluated p47^phox translocation from the cytosol to the membrane in HL-60 differentiated cells; endogenous in cells; host or cells: neutrophil-differentiated HL-60 cells treated with PMA; membrane and cytosolic fractions obtained by cryo-fracture
# T1 sequence (P14598 1-390): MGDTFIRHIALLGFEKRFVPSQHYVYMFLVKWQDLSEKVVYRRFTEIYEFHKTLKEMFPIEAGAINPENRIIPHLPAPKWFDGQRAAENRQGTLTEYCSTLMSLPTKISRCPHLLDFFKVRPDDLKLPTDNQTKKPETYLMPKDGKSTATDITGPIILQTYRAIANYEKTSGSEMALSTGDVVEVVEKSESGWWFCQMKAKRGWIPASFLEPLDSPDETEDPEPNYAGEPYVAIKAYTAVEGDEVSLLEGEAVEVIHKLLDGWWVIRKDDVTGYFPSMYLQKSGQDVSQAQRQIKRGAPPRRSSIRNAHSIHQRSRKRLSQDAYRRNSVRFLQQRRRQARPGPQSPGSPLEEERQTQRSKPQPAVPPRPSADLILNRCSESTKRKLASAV
# Experimental: Neutrophil-differentiated HL-60 cells (2 × 10^6 cells/mL) were incubated at 37 °C in a humid atmosphere with 5% CO2 and 50 μM of the different acrylonitrile compounds, then PMA 0.8 μM was added and incubated for 1 h to induce the activation of the enzyme NADPH oxidase. As a positive inhibition control, VAS2870 (20 μM) was used. Another two controls were performed: one with cells activated by PMA in the presence of DMSO, and the other (NA, non-activated) with cells in the absence of PMA and the acrylonitrile compounds. In 15 mL conical tubes, 5 mL of cell suspension from each treatment and control condition was transferred at 2 × 10^6 cells/mL and centrifuged at 1000 rpm at 4 °C for 10 min. The supernatant was then discarded, and each pellet was re-suspended in 2 mL of a 4% PBS solution with 2 mM EGTA and 0.25 mM PMSF frozen at −80 °C for 10 min. Then each pellet was thawed on ice. After this, the cell suspension was passed through a glass tissue homogenizer (Deltalab®, I.C.T, S.L, La Rioja, Spain) 20 times. The freezing-thawing and homogenization processes were repeated three times. Finally, the homogenate was centrifuged at 15,000 rpm at 4 °C for 15 min. The supernatant (cytosolic fraction) was removed from the pellet (membranes were prepared). A fraction was removed for the determination of total proteins, and the remainder was stored at −80 °C for further analysis. […]
smiles,measurement,setting,value
N#C/C(=C\c1cc(-c2ccccc2)on1)C(=O)c1c[nH]c2ccccc12 [Compound C6],"viability at 72 h, 100 µM",MTT cytotoxicity assay,~5%
same,translocation of p47phox to the membrane (in words),p47^phox,significantly reduced the translocation of p47^phox to the membrane
